# From US8648201B2, “Aminopyridine derivatives for treating tumors and inflammatory diseases” (MERCK PATENT GmbH, priority 2009, dated 2014)
# Experiments:
# Format in all cases: biochemical
# Details in all cases: enzyme
# IRAK-1 = biological target: T1, IRAK-1 (Homo sapiens, UniProt P51617); experiment: Test for the inhibition of IRAK1 (autophosphorylation, flashplate)
# T1 construct: His6 (N); Dr.Jaekel Pool B, 232Y08C1.IRK
# Protocol: (§1) The experimental batches are carried out in a flashplate system with 384 wells/microtitre plate. In each case, in order to investigate the inhibition of the autophosphorylation activity of IRAK1, the IRAK1 sample His6-IRAK1 (5.1 nM), 1 μM ATP (with 0.25 μCi of ^33P-ATP/well) and the test substance in 50 μl of conventional experimental solution per well are incubated at 22° C. for 180 min. The test substances are employed in corresponding concentrations (if desired in a dilution series). The control is carried out without test substance. The reaction is stopped using standard methods and washed. The activity of the kinase is measured via the incorporated radioactivity in top count. In order to determine the non-specific kinase reaction (blank value), the experimental batches are carried out in the presence of 1 μM staurosporin. The radioactivity (decompositions per minute) of the blank value (no use of test substance in the presence of 1 μM staurosporin) is subtracted from all other radioactivity values. The controls (kinase activity without test substance) are set equal to 100 percent and all other radioactivity values (after subtracting the blank value) are expressed set in relation thereto (for example in % of the control). IC50 values (50% inhibition) are determined with the aid of statistics programs, such as, for example, RS1.
# IRAK-4 = biological target: T2, IRAK-4 (Homo sapiens, UniProt Q9NWZ3); experiment: Test for the inhibition of IRAK4 (flashplate, 33P-ATP)
# T2 construct: His6 (N); Dr.Jaekel
# T2 sequence (Q9NWZ3 1-460): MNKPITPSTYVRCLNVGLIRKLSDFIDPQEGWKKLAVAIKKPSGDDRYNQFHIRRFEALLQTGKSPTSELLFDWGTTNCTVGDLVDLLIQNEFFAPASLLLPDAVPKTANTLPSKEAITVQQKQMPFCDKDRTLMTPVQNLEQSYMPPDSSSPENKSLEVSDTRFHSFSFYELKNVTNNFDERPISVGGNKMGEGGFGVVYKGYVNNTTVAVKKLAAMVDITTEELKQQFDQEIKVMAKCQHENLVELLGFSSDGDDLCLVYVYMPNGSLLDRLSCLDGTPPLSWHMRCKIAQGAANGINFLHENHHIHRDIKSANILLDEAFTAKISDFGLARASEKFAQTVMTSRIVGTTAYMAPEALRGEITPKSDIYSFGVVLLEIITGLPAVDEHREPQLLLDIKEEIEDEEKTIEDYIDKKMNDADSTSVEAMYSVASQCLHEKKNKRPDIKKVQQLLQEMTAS
# Protocol: as §1, with “case,” for “case, in order to investigate”, “the IRAK4 sample His6-IRAK4 (7.3 nM),” for “the inhibition of”, “the biotinylated substrate peptide STK substrate 1-biotin (Cisbio Bioassays, France) (300” for “the autophosphorylation activity of IRAK1, the IRAK1 sample His6-IRAK1 (5.1”, “nM), 10” for “nM), 1”
# PDK1 = biological target: T3, PDK1 (Homo sapiens, UniProt O15530); experiment: Test for the inhibition of PDK1 (flashplate, 33P-ATP)
# T3 construct: His6 (N)
# T3 sequence (O15530 51-556 limits assumed): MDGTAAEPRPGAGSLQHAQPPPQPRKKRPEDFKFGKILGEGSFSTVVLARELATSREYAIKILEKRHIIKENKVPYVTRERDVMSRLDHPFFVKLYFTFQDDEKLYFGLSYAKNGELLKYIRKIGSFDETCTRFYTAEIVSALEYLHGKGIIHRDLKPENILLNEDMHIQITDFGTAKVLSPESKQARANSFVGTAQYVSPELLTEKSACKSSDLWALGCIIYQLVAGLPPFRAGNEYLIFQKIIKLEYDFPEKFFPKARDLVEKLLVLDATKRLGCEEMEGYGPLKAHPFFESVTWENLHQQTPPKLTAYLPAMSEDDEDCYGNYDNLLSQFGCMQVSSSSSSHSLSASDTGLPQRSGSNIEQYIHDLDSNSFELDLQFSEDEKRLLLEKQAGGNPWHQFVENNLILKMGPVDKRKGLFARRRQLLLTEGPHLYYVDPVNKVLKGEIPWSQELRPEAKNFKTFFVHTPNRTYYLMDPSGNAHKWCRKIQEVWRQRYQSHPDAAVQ
# Protocol: The experimental batches are carried out in a flashplate system with 384 wells/microtitration plate.
# In each case, the PDK1 sample His6-PDK1(1-50)(3.4 nM), the PDK1 substrate biotin-bA-bA-[…] (400 nM), 4 μM ATP (with 0.2 μCi of ^33P-ATP/well) and the test substance in 50 μl of conventional experimental solution per well are incubated at 30° C. for 60 min. The test substances are employed in corresponding concentrations (if desired in a dilution series). The control is carried out without test substance. The reaction is stopped using standard methods and washed. The activity of the kinase is measured via the incorporated radioactivity in top count. In order to determine the non-specific kinase reaction (blank value), the experimental batches are carried out in the presence of 100 nM staurosporin.
# The radioactivity (decompositions per minute) of the blank value (no use of test substance in the presence of staurosporin) is subtracted from all other radioactivity values. The controls (kinase activity without test substance) are set equal to 100 percent and all other radioactivity values (after subtracting the blank value) are expressed set in relation thereto (for example in % of the control).
# IC50 values (50% inhibition) are determined with the aid of statistics programmes, such as, for example, RS1.
# T1 sequence (P51617 whole entry, species assumed): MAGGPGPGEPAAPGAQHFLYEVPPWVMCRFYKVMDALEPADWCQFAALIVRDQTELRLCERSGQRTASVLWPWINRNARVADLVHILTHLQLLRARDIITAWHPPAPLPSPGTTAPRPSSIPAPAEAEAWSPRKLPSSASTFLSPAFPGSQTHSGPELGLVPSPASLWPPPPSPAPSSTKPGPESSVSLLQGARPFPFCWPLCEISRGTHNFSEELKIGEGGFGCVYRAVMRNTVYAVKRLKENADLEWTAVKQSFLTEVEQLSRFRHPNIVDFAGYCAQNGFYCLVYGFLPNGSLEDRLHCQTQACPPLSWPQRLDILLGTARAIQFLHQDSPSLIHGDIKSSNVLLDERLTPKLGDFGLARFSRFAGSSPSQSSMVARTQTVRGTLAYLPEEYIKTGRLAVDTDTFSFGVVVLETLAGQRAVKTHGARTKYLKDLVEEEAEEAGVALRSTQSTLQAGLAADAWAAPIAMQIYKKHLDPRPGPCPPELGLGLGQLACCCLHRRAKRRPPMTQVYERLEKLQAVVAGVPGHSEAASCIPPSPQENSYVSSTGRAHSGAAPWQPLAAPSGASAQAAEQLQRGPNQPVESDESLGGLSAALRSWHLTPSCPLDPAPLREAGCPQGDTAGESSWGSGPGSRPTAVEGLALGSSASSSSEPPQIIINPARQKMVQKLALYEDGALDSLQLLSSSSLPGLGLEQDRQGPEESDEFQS
SMILES,IC50 (IRAK-1) [nM],IC50 (IRAK-4) [nM],IC50 (PDK1) [nM]
Cc1cc(Cl)cc2nc(-c3cc(-c4cnn(C5CCNCC5)c4)cnc3N)[nH]c12 [Compound A72],100 to 10000,100 to 10000,
"CC1CC(=O)NN=C1c1ccc2[nH]c(-c3cc(-c4cnn(C5CCNCC5)c4)cnc3N)nc2c1 (stereo not drawn) [Compound A17, 6-{2-[2-amino-5-(1-piperidin-4-yl-1H-pyrazol-4-yl)-pyridin-3-yl]-1H-benzimidazol-5-yl}-5-methyl-4,5-dihydro-2H-pyridazin-3-one]",,,1 to 100
"Cn1cc(-c2cnc(N)c(-c3nc4cc(CC(N)=O)ccc4[nH]3)c2)cn1 [Compound A120, 2-{2-[2-amino-5-(1-methyl-1H-pyrazol-4-yl)pyridin-3-yl]-1H-benzimidazol-5-yl}acetamide]",,,1 to 100
"Cn1cc(-c2cnc(N)c(-c3nc4ccc(-c5ccc(=O)[nH]n5)cc4[nH]3)c2)cn1 [Compound A8, 6-{2-[2-Amino-5-(1-methyl-1H-pyrazol-4-yl)-pyridin-3-yl]-3H-benzimidazol-5-yl}-2H-pyridazin-3-one]",100 to 10000,100 to 10000,
"COc1cc2[nH]c(-c3cc(-c4cnn(CC(=O)N5CCCCC5)c4)cnc3N)nc2cc1F [Compound A30, 2-{4-[6-amino-5-(5-fluoro-6-methoxy-1H-benzimidazol-2-yl)pyridin-3-yl]pyrazol-1-yl}-1-piperidin-1-ylethanone]",1 to 100,100 to 10000,
"CC1CC(=O)NN=C1c1ccc2[nH]c(-c3cc(-c4cnn(CC(=O)N(C)C)c4)cnc3N)nc2c1 (stereo not drawn) [Compound A25, 2-(4-{6-amino-5-[5-(4-methyl-6-oxo-1,4,5,6-tetrahydropyridazin-3-yl)-1H-benzimidazol-2-yl]pyridin-3-yl}pyrazol-1-yl)-N,N-dimethylacetamide]",,,1 to 100
Nc1ncc(-c2cnn(C3CCNCC3)c2)cc1-c1nc2cc3[nH]c(=O)[nH]c3cc2[nH]1 [Compound A55],,,1 to 100
"Cn1cc(-c2cnc(N)c(-c3nc4cc5cn[nH]c5cc4[nH]3)c2)cn1 [Compound A115, 3-(1,7-Dihydroimidazo[4,5-f]indazol-6-yl)-5-(1-methyl-1H-pyrazol-4-yl)pyridin-2-ylamine]",100 to 10000,100 to 10000,
Cc1cccc2nc(-c3cc(-c4cnn(C)c4)cnc3N)[nH]c12 [Compound A42],100 to 10000,100 to 10000,
Nc1ncc(-c2cnn(C3CCNCC3)c2)cc1-c1nc2ccc(Cl)cc2[nH]1 [Compound A70],100 to 10000,1 to 100,
"COc1ccc2nc(-c3cc(-c4cnn(Cc5cccs5)c4)cnc3N)[nH]c2c1 [Compound A113, 3-(6-Methoxy-1H-benzimidazol-2-yl)-5-(1-thiophen-2-ylmethyl-1H-pyrazol-4-yl)pyridin-2-ylamine]",1 to 100,100 to 10000,
Cn1cc(-c2cnc(N)c(-c3nc4c(F)cc(F)cc4[nH]3)c2)cn1 [Compound A76],100 to 10000,> 10000,
"CC(O)(c1ccccc1)c1ccc2[nH]c(-c3cc(-c4cnn(CCN5CCOCC5)c4)cnc3N)nc2c1 (stereo not drawn) [Compound A150, 1-(2-{2-Amino-5-[1-(2-morpholin-4-ylethyl)-1H-pyrazol-4-yl]pyridin-3-yl}-1H-benzimidazol-5-yl)-1-phenylethanol]",,,100 to 10000

# Results, then the compound that gave them:
IC50 (IRAK-1) [nM],IC50 (IRAK-4) [nM],IC50 (PDK1) [nM],SMILES
100 to 10000,1 to 100,,Nc1ncc(-c2cnn(C3CCNCC3)c2)cc1-c1nc2ccc(F)cc2[nH]1 [Compound A50]
1 to 100,1 to 100,,"COCCNC(=O)c1ccc(-c2cnc(N)c(-c3nc4ccc(OC)cc4[nH]3)c2)s1 [Compound A130, N-(2-methoxyethyl)-5-[6-amino-5-(6-methoxy-1H-benzimidazol-2-yl)pyridin-3-yl]thiophene-2-carboxamide]"
100 to 10000,100 to 10000,,"COc1ccc2nc(-c3cc(-c4cnn(CCN(C)C)c4)cnc3N)[nH]c2c1 [Compound A94, 5-[1-(2-Dimethylaminoethyl)-1H-pyrazol-4-yl]-3-(6-methoxy-1H-benzimidazol-2-yl)pyridin-2-ylamine]"
100 to 10000,100 to 10000,,"COc1ccc2nc(-c3cc(-c4cnn(CCCN(C)C)c4)cnc3N)[nH]c2c1 [Compound A96, 5-[1-(3-Dimethylaminopropyl)-1H-pyrazol-4-yl]-3-(6-methoxy-1H-benzimidazol-2-yl)pyridin-2-ylamine]"
100 to 10000,100 to 10000,,Nc1ncc(-c2ccncc2)cc1-c1nc2ccccc2[nH]1 [Compound A32]
100 to 10000,100 to 10000,,COc1cc2nc(-c3cc(-c4cnn(C5CCNCC5)c4)cnc3N)[nH]c2cc1OC [Compound A66]
100 to 10000,100 to 10000,,"CCn1cc(-c2cnc(N)c(-c3nc4ccc(OC)cc4[nH]3)c2)cn1 [Compound A105, 5-(1-Ethyl-1H-pyrazol-4-yl)-3-(6-methoxy-1H-benzimidazol-2-yl)pyridin-2-ylamine]"
,,1 to 100,"CC1CC(=O)NN=C1c1ccc2[nH]c(-c3cc(-c4cnn(CC(=O)O)c4)cnc3N)nc2c1 (stereo not drawn) [Compound A24, (4-{6-amino-5-[5-(4-methyl-6-oxo-1,4,5,6-tetrahydropyridazin-3-yl)-1H-benzimidazol-2-yl]pyridin-3-yl}pyrazol-1-yl)acetic acid]"
100 to 10000,100 to 10000,,Cn1cc(-c2cnc(N)c(-c3nc4ccccc4[nH]3)c2)cn1 [Compound A34]
100 to 10000,100 to 10000,,Cc1cccc2nc(-c3cc(-c4cnn(CCN5CCOCC5)c4)cnc3N)[nH]c12 [Compound A48]
,,1 to 100,"CC1CC(=O)NN=C1c1ccc2[nH]c(-c3cc(-c4cnn(CC(=O)N5CCN(C)CC5)c4)cnc3N)nc2c1 (stereo not drawn) [Compound A26, 6-[2-(2-Amino-5-{1-[2-(4-methylpiperazin-1-yl)-2-oxoethyl]-1H-pyrazol-4-yl}-pyridin-3-yl)-1H-benzimidazol-5-yl]-5-methyl-4,5-dihydro-2H-pyridazin-3-one]"
,,1 to 100,Cn1cc(-c2cnc(N)c(-c3nc4ccc(CCN)cc4[nH]3)c2)cn1 [Compound A64]
